Reference: PubChem BioAssay (NCI)
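Interpolation was linear, between the two tested concentrations surrounding the appropriate level; five concentrations were tested over 48 hours in 96-well plates. GI50 = concentration required for 50% inhibition of growth. The concentration for full growth arrest is given as TGI.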

Tests used:
Test in all cases: NCI-60 cell line screen, 48 h
[1] = test system: 786-0 renal
[2] = test system: A549 NSCLC
[3] = test system: ACHN renal
[4] = test system: BT-549 breast
[5] = test system: CAKI-1 renal
[6] = test system: CCRF-CEM leukemia
[7] = test system: COLO 205 colon
[8] = test system: DU-145 prostate
[9] = test system: EKVX NSCLC
[10] = test system: HCC-2998 colon
[11] = test system: HCT-116 colon
[12] = test system: HCT-15 colon
[13] = test system: HL-60(TB) leukemia
[14] = test system: HOP-92 NSCLC
[15] = test system: HS 578T breast
[16] = test system: HT29 colon
[17] = test system: IGROV1 ovarian
[18] = test system: K-562 leukemia
[19] = test system: KM12 colon
[20] = test system: M14 melanoma
[21] = test system: MALME-3M melanoma
[22] = test system: MCF7 breast
[23] = test system: MDA-MB-231 breast
[24] = test system: MDA-MB-435
[25] = test system: MOLT-4 leukemia
[26] = test system: NCI-H226 lung
[27] = test system: NCI-H23 lung
[28] = test system: NCI-H460 lung
[29] = test system: NCI-H522 lung
[30] = test system: NCI/ADR-RES ovarian
[31] = test system: OVCAR-3 ovarian
[32] = test system: OVCAR-4 ovarian
[33] = test system: OVCAR-5 ovarian
[34] = test system: OVCAR-8 ovarian
[35] = test system: PC-3 prostate
[36] = test system: RPMI-8226 leukemia
[37] = test system: RXF 393 renal
[38] = test system: SF-268 CNS
[39] = test system: SF-295 CNS
[40] = test system: SF-539 CNS
[41] = test system: SK-MEL-2 melanoma
[42] = test system: SK-MEL-28 melanoma
[43] = test system: SK-MEL-5 melanoma
[44] = test system: SK-OV-3 ovarian
[45] = test system: SN12C renal
[46] = test system: SNB-19 CNS
[47] = test system: SNB-75 CNS
[48] = test system: SR leukemia
[49] = test system: SW-620 colon
[50] = test system: T-47D breast
[51] = test system: TK-10 renal
[52] = test system: U251 CNS
[53] = test system: UACC-257 melanoma
[54] = test system: UACC-62 melanoma
[55] = test system: UO-31 renal
[56] = test system: A498 renal
[57] = test system: HOP-62 NSCLC
[58] = test system: LOX IMVI melanoma

Nc1nc2ccc(Sc3ccc4nc(N)[nH]c(=O)c4c3)cc2c(=O)[nH]1
TGI [1]: > 100 µM | TGI [2]: > 100 µM | TGI [3]: > 100 µM | TGI [4]: > 100 µM | TGI [5]: > 100 µM | TGI [6]: > 100 µM | TGI [7]: > 100 µM | TGI [8]: > 100 µM | TGI [9]: > 100 µM | TGI [10]: > 100 µM | TGI [11]: > 100 µM | TGI [12]: > 100 µM | TGI [13]: > 100 µM | TGI [14]: > 100 µM | TGI [15]: > 100 µM | TGI [16]: > 100 µM | TGI [17]: > 100 µM | TGI [18]: > 100 µM | TGI [19]: > 100 µM | TGI [20]: > 100 µM | TGI [21]: > 100 µM | TGI [22]: > 100 µM | TGI [23]: > 100 µM | TGI [24]: > 100 µM | TGI [25]: > 100 µM | TGI [26]: 81.9 µM | TGI [27]: > 100 µM | TGI [28]: > 100 µM | TGI [29]: > 100 µM | TGI [30]: > 100 µM | TGI [31]: > 100 µM | TGI [32]: > 100 µM | TGI [33]: > 100 µM | TGI [34]: > 100 µM | TGI [35]: > 100 µM | TGI [36]: > 100 µM | TGI [37]: > 100 µM | TGI [38]: > 100 µM | TGI [39]: > 100 µM | TGI [40]: > 100 µM | TGI [41]: > 100 µM | TGI [42]: > 100 µM | TGI [43]: > 100 µM | TGI [44]: > 100 µM | TGI [45]: > 100 µM | TGI [46]: > 100 µM | TGI [47]: > 100 µM | TGI [48]: > 100 µM | TGI [49]: > 100 µM | TGI [50]: > 100 µM | TGI [51]: > 100 µM | TGI [52]: > 100 µM | TGI [53]: > 100 µM | TGI [54]: > 100 µM | TGI [55]: > 100 µM

CN(C)CCCOc1cccc(NC2=C(Cl)C(=O)C(Nc3cccc(OCCCN(C)C)c3)=C(Cl)C2=O)c1
GI50 [1]: 0.763 µM | TGI [1]: 2.09 µM | GI50 [56]: 1.59 µM | TGI [56]: 3.01 µM | GI50 [2]: 1.9 µM | TGI [2]: 3.5 µM | GI50 [3]: 1.78 µM | TGI [3]: 3.16 µM | GI50 [4]: 1.57 µM | TGI [4]: 2.93 µM | GI50 [5]: 1.45 µM | TGI [5]: 2.76 µM | GI50 [6]: 0.402 µM | TGI [6]: 3.26 µM | GI50 [7]: 1.56 µM | TGI [7]: 3.34 µM | GI50 [8]: 0.765 µM | TGI [8]: 2 µM | GI50 [9]: 1.19 µM | TGI [9]: 2.54 µM | GI50 [10]: 1.34 µM | TGI [10]: 2.81 µM | GI50 [11]: 0.286 µM | TGI [11]: 0.804 µM | GI50 [12]: 0.911 µM | TGI [12]: 2.45 µM | GI50 [57]: 1.93 µM | TGI [57]: 3.68 µM | GI50 [14]: 0.58 µM | TGI [14]: 1.28 µM | GI50 [15]: 2.11 µM | TGI [15]: 5.4 µM | GI50 [16]: 0.56 µM | TGI [16]: 1.59 µM | GI50 [18]: 0.307 µM | TGI [18]: 1.42 µM | GI50 [19]: 1.32 µM | TGI [19]: 2.73 µM | GI50 [58]: 0.175 µM | TGI [58]: 0.346 µM | GI50 [20]: 1.33 µM | TGI [20]: 2.74 µM | GI50 [21]: 0.592 µM | TGI [21]: 1.36 µM | GI50 [22]: 0.184 µM | TGI [22]: 0.408 µM | GI50 [23]: 0.655 µM | TGI [23]: 1.6 µM | GI50 [24]: 1.04 µM | TGI [24]: 2.44 µM | GI50 [25]: 0.515 µM | TGI [25]: 1.59 µM | GI50 [26]: 5.85 µM | TGI [26]: 14.1 µM | GI50 [27]: 1.13 µM | TGI [27]: 2.79 µM | GI50 [28]: 1.8 µM | TGI [28]: 3.48 µM | GI50 [29]: 0.172 µM | TGI [29]: 0.437 µM | GI50 [30]: 2.62 µM | TGI [30]: 9.69 µM | GI50 [31]: 0.188 µM | TGI [31]: 0.355 µM | GI50 [32]: 0.216 µM | TGI [32]: 0.592 µM | GI50 [33]: 1.83 µM | TGI [33]: 3.43 µM | GI50 [34]: 1.57 µM | TGI [34]: 3.44 µM | GI50 [35]: 1.57 µM | TGI [35]: 3.29 µM | GI50 [36]: 1.25 µM | TGI [36]: 4.54 µM | GI50 [37]: 0.885 µM | TGI [37]: 2.22 µM | GI50 [38]: 1.7 µM | TGI [38]: 3.47 µM | GI50 [39]: 1.73 µM | TGI [39]: 3.18 µM | GI50 [40]: 1.8 µM | TGI [40]: 3.22 µM | GI50 [41]: 1.53 µM | TGI [41]: 3.2 µM | GI50 [42]: 1.71 µM | TGI [42]: 3.16 µM | GI50 [43]: 1 µM | TGI [43]: 2.37 µM | GI50 [44]: 5.45 µM | TGI [44]: 18.3 µM | GI50 [45]: 0.345 µM | TGI [45]: 0.865 µM | GI50 [46]: 1.78 µM | TGI [46]: 3.32 µM | GI50 [47]: 1.68 µM | TGI [47]: 3.6 µM | GI50 [49]: 0.276 µM | TGI [49]: 0.766 µM | GI50 [50]: 0.243 µM | TGI [50]: 0.779 µM | GI50 [51]: 0.831 µM | TGI [51]: 2.12 µM | GI50 [52]: 1.57 µM | TGI [52]: 2.97 µM | GI50 [53]: 0.941 µM | TGI [53]: 2.28 µM | GI50 [54]: 1.5 µM | TGI [54]: 2.95 µM | GI50 [55]: 1.45 µM | TGI [55]: 2.76 µM
